Tests used:
CIPN patients = details: cited from earlier work
[1] = tested on: patients diagnosed with early-stage breast cancer; assay: Grade 2 or higher CIPN diagnosed by a clinician (CTCAE-CIPN) during taxane chemotherapy; assay type: in vivo, human; details: adjuvant or neoadjuvant chemotherapy, at any point during chemotherapy, 89 patients on paclitaxel, 70 on docetaxel
Description: One hundred fifty-nine patients diagnosed with early-stage breast cancer and scheduled to undergo adjuvant or neoadjuvant chemotherapy treatment that included a taxane regimen (paclitaxel or docetaxel) were enrolled. To be enrolled in the study, each patient must have met all of the inclusion criteria. Inclusion criteria: women ages 21 or older with histologically confirmed Stage I-III breast cancer and scheduled for adjuvant or neoadjuvant chemotherapy. Venous blood samples were collected from each patient into an EDTA tube during the patient's consultation visit with the oncologist or at their first chemotherapy session before chemotherapy was administered. Additional blood samples were collected at the end of chemotherapy treatment for 124 of the initial 159 patients. Median age of patients at consent was 58 years (24-83 range), median p16 was 9.5 (6.8-11.6 range), and median p16Age GAP was −22 years (−94-37 range). T cells were isolated from blood samples and p16 expression levels were calculated as described in Example 1.
Development of grade 2 or higher CIPN as diagnosed by a clinician (CTCAE-CIPN) at any point during chemotherapy was an endpoint of the study. […]

[2] = tested on: patients diagnosed with early-stage breast cancer; assay: CIPN risk prediction score built from the p16Age GAP regression model; set-up: species or system human; details: patient with a CIPN score of 11 (scale 0-20)
Protocol: Regression models were built by step-wise addition of variables such as co-morbidities, chronological age, p16, or p16Age GAP and interactions between the variables were also considered. […] In contrast, when p16Age GAP was used instead of p16 (Model 2), p16Age GAP was able to replace all co-morbidities, chronological age, and p16 as variables to yield the model with the similar fit (AUC 0.76, NPV 87%). The ROC curve depicted in FIG. 4 was calculated using Model 2. The p16Age GAP-containing model was a strong predictor of the risk of developing CIPN.
The data from the regression model shown in FIG. 4 was used to build a CIPN risk prediction score according to standard methods (see, e.g., Hurria, J. Clin Oncol. (2011) and Hurria J. Clin Oncology, (2016)). All variables were assigned a weight based on their R coefficients in the regression model and the sum of all weights was added to create a final risk score for each patient. For a CIPN risk model, the range was adjusted so the total score scale was 0-20, with a single value for each patient. […] In certain embodiments, this risk differential between regimens of similar efficacy can help guide regimen selection. […]

[3] = tested on: advanced breast cancer, hormone receptor-positive, HER2-negative; assay: Time to progression on CDK4/6i treatment; assay type: in vivo, human; details: Palbociclib with letrozole or fulvestrant
Description: Six patients diagnosed with advanced breast cancer who were hormone receptor-positive, HER2-negative, were enrolled into a study and received a CDK4/6 inhibitor, Palbociclib, in combination with hormone-based therapy (letrozole or fulvestrant). Venous blood samples were collected from each patient into an EDTA tube prior to CDK4/6i administration, and at approximately 3 and 6 months (see FIG. 15 for timing) after the start of drug administration. T cells were isolated from blood samples and p16 expression levels were calculated as described in Example 1. Patients were followed to determine how long they received CDK4/6i treatment before becoming resistant to CDK4/6i and their cancer began to progress again (time to progression).

Structure (SMILES)	patients who developed grade 2 or higher CIPN [1]	risk of CIPN [2]	further results
CNCC[C@H](Oc1cccc2ccccc12)c1cccs1 [Duloxetine]			decrease in pain score, on average (CIPN patients; CIPN patients, improvement derived primarily from patients who received platinum-containing agents): one; benefit on CIPN pain (CIPN patients; patients receiving taxanes): no clear benefit
CC(=O)O[C@@]12CO[C@@H]1C[C@H](O)[C@@]1(C)C(=O)[C@H](O)C3=C(C)[C@@H](OC(=O)[C@H](O)[C@@H](NC(=O)OC(C)(C)C)c4ccccc4)C[C@@](O)([C@@H](OC(=O)c4ccccc4)[C@H]21)C3(C)C [docetaxel]	10%	9%	
CC(=O)O[C@H]1C(=O)[C@@]2(C)[C@H]([C@H](OC(=O)c3ccccc3)[C@]3(O)C[C@H](OC(=O)[C@H](O)[C@@H](NC(=O)c4ccccc4)c4ccccc4)C(C)=C1C3(C)C)[C@]1(OC(C)=O)CO[C@@H]1C[C@@H]2O [paclitaxel]	46%	50%	
CC(=O)c1c(C)c2cnc(Nc3ccc(N4CCNCC4)cn3)nc2n(C2CCCC2)c1=O [CDK 4/6i, Palbociclib]			time to progression (resistance to CDK 4/6i treatment) ([3]; four patients whose p16 expression did not increase above measurement precision): 35-50 months; time to progression (resistance to CDK 4/6i treatment) ([3]; two patients whose p16 expression increased above measurement precision after treatment): 10-20 months
